# Results taken from patent US11369666B2, “Treatment of diseases involving mucin” (NewSouth Innovations Pty Limited, priority 2012, dated 2022).
# “And” between values parts separate entries of the source, which are not always exact repeats. Identical values can stand only once.
# Experiments:
# [1] = system: MUC 1 cell lines; assay: Br and NAC with chemotherapy drugs in MUC 1 cell lines (FIG. 11, 12); assay type: cell-based; details: low doses of Cisplatin, FIG. 11 and 12
# From the text: The combination of Br and NAC with chemotherapy drugs in MUC 1 cell lines was investigated (see FIGS. 11 and 12).
# [2] = system: PMP tumor/mucin; assay: Breakdown of PMP tumor/mucin specimens from 31 patients in the laboratory; assay type: biochemical, human; details: for Residual mucin weight post treatment: 300 μg/ml Br, 5% NAC or both
# Description: Specimens of tumor/mucin were taken from the abdomen and then subjected to treatment in the laboratory with 300 μg/ml Br, 5% NAC, or a mixture of both, for 3 hours at 37° C. The weight of mucin tumor was measured before and after treatment.
# [3] = system: mesothelioma cell lines PET and YOU (MUC1); assay: Growth inhibition of MUC1 mesothelioma cell lines (FIG. 9, 10); assay type: cell-based
# From the text: The two mesothelioma cell lines PET and YOU (both of which have MUC1) were investigated. These cell lines are different from cancer cells which secrete mucin externally or that have mucin internally in the cell (signet cell).
# [4] = system: human PMP mucin; assay: Time course for dissolution of human PMP mucin in the laboratory (FIG. 1); assay type: biochemical; details: FIG. 1, agent alone
# [5] = system: variant of HT29 (5M21); assay: Effect of Br and NAC combination on chemotherapy (FIG. 8); assay type: cell-based
# From the text: Chemo resistance of mucin secreting cancers is common. The experiments in FIG. 8 again relate to a variant of HT29 (5M21). A combination of Br and NAC was effective, whereas the individual agents were not effective.
# [6] = system: MKN 45 human gastric mucin secreting cancer cell line; assay: In vitro growth, SRB assay, 72 hour culture (FIG. 7a); assay type: cell-based; details: MKN 45, SRB assay, agents individually
# Description: MKN 45 is a human gastric mucin secreting cancer cell line. The effect of NAC, Br and the combination on in vitro growth (SRB assay, 72 hour culture) was studied.
structure (smiles),measurement,setting,value
"N.N.[Cl][Pt][Cl] [Cisplatin, cisplatin]",efficacy in MUC 1 cell lines,[1],ineffective
"CC(=O)N[C@@H](CS)C(=O)O [NAC, N-acetyl cysteine]",effect of treatment on PMP tumor (Table 1),"[2]; agent alone, 31 patients",ineffective
same,reduction of weight of mucin tumor,"[2]; in every case, agent on its own, 300 μg/ml Br or 5% NAC, 3 hours at 37° C.",no (or a very modest) reduction of weight
same,Residual mucin weight post treatment,"[2]; patient P1, mucin type soft, 3 hours at 37° C.",1.90 g and 1.67 g
same,Residual mucin weight post treatment,"[2]; patient P2, mucin type soft, 3 hours at 37° C.",1.39 g and 1.53 g
same,Residual mucin weight post treatment,"[2]; patient P3, mucin type soft, 3 hours at 37° C.",1.80 g and 1.83 g
same,Residual mucin weight post treatment,"[2]; patient P4, mucin type Semi solid, 3 hours at 37° C.",1.28 g and 1.53 g
same,Residual mucin weight post treatment,"[2]; patient P5, mucin type Hard, 3 hours at 37° C.",1.69 g and 1.79 g
same,Residual mucin weight post treatment,"[2]; patient P6, mucin type soft, 3 hours at 37° C.",2.13 g and 2.08 g
same,Residual mucin weight post treatment,"[2]; patient P7, mucin type soft, 3 hours at 37° C.",2.13 g and 2.08 g
same,Residual mucin weight post treatment,"[2]; patient P8, mucin type soft, 3 hours at 37° C.",0.95 g and 1.61 g
same,Residual mucin weight post treatment,"[2]; patient P9, mucin type Signet ring carcinoma, 3 hours at 37° C.",1.42 g and 1.56 g
same,Residual mucin weight post treatment,"[2]; patient P10, mucin type Hard, 3 hours at 37° C.",1.82 g and 1.73 g
same,Residual mucin weight post treatment,"[2]; patient P12, mucin type Semi Hard, 3 hours at 37° C.",1.81 g and 1.94 g
same,Residual mucin weight post treatment,"[2]; patient P13, mucin type Hard, 3 hours at 37° C.",1.73 g and 1.43 g
same,Residual mucin weight post treatment,"[2]; patient P14, mucin type soft, 3 hours at 37° C.",1.60 g and 1.57 g
same,Residual mucin weight post treatment,"[2]; patient P15, mucin type soft, 3 hours at 37° C.",1.36 g and 1.37 g
same,Residual mucin weight post treatment,"[2]; patient P16, mucin type soft, 3 hours at 37° C.",1.69 g and 1.62 g
same,Residual mucin weight post treatment,"[2]; patient P17, Scraped mucin from mucoid tissues, 3 hours at 37° C.",2.64 g
same,Residual mucin weight post treatment,"[2]; patient P18, mucin type soft, 3 hours at 37° C.",2.31 g and 2.24 g
same,Residual mucin weight post treatment,"[2]; patient P19, Semi soft Mucin deposits on tissue, 3 hours at 37° C.",1.79 g and 1.89 g
same,Residual mucin weight post treatment,"[2]; patient P20, mucin type soft, 3 hours at 37° C.",2.34 g and 2.36 g
same,Residual mucin weight post treatment,"[2]; patient P21, mucin type soft, 3 hours at 37° C.",2.38 g and 1.74 g
same,Residual mucin weight post treatment,"[2]; patient P22, Adeno-carcinoma, 3 hours at 37° C.",1.74 g and 1.64 g
same,Residual mucin weight post treatment,"[2]; patient P23, mucin type Semi solid, 3 hours at 37° C.",1.76 g
same,Residual mucin weight post treatment,"[2]; patient P24, Mucin deposits on tissue, 3 hours at 37° C.",1.64 g and 1.46 g
same,Residual mucin weight post treatment,"[2]; patient P25, mucin type Hard, 3 hours at 37° C.",1.49 g and 1.37 g
same,Residual mucin weight post treatment,"[2]; patient P26, mucin type Hard, 3 hours at 37° C.",1.23 g and 1.26 g
same,Residual mucin weight post treatment,"[2]; patient P27, mucin type soft, 3 hours at 37° C.",1.92 g and 2.03 g
same,Residual mucin weight post treatment,"[2]; patient P28, mucin type soft, 3 hours at 37° C.",1.48 g
same,Residual mucin weight post treatment,"[2]; patient P29, mucin type soft, 3 hours at 37° C.",1.21 g
same,Residual mucin weight post treatment,"[2]; patient P30, mucin type soft, 3 hours at 37° C.",1.26 g and 1.16 g
same,Residual mucin weight post treatment,"[2]; patient P31, mucin type Hard, 3 hours at 37° C.",1.56 g and 1.84 g
same,growth inhibition of PET and YOU,[3]; 50 mM NAC alone,ineffective
same,growth inhibition of PET and YOU,[3]; FIG. 9 and 10,no action
same,effect on dissolution of human PMP mucin,[4],no effect
same,efficacy against 5M21,[5],not effective
same,effect on in vitro growth,[6],no or little effect
